The text below walks through data of US20240300927A1, “AMIDES AS CBL-B INHIBITORS” (Genentech, Inc., priority 2021, published 2024).

SMILES strings stand for the structures. pEC50, pIC50: −log10 of the molar value. In brackets after ≈: the same amount, converted by molar mass. Read-outs that look alike come from different tables or passages of the source.

For one series, the target named is CYP3A4 (Homo sapiens (Human), UniProt P08684). The series can be described thus: Reversible CYP inhibition, CYP3A4. It is filed as in vitro ADME. The source says:
Reversible CYP inhibition by compounds described herein can be measured by protocols described by Halladay, J. S.; Delarosa, E. M.; Tran, D.; Wang, L.; Wong, S.; Khojasteh, S. C., “High-Throughput, 384-Well, LC-MS/MS CYP Inhibition Assay Using Automation, Cassette-Analysis Technique, and Streamlined Data Analysis”, Drug. Metab. Lett. 2011, 5 (3), 220-230, incorporated herein by reference.
In the CYP3A4 measurements, potency is less desirable.

The next series has as its target c-Cbl (Homo sapiens (Human), UniProt P22681). The series can be described thus: C-cbl LCK Ub TR-FRET assay (C-cbl Lck HTRF). It is filed as biochemical. An outline of the steps: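 Biotin-Cbl-b (16 nM) or biotin-c-Cbl (12 nM) at 2× preincubated with compound 60 min, then His-LCK (120 nM), 1 mM ATP and MgCl2 (2× mix) added for 90 min at RT. Buffer: HEPES pH 7.0, DTT. UBE2D2–HA-ubiquitin transfer read by TR-FRET (665/615 nm); IC50 versus no-LCK and DMSO controls, 10-point dilutions.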
For orientation: In TR-FRET formats the signal depends on donor and acceptor labels being close together.

Series [1] can be described thus: Liver microsomes metabolic stability, dog. The format is in vitro ADME. How it is done:
(§1) Metabolic stability of test compounds was evaluated in pooled rat, mouse, dog, and cynomolgus monkey liver microsomes (BD Biosciences, San Jose, CA). The incubation conditions were as follows: 1 μM of the tested compound, 1 mM NADPH, 0.5 mg/mL microsomal protein in 0.1 M potassium phosphate buffer (pH 7.4). Following a 5-minute pre-incubation period, the enzymatic reactions were initiated by the addition of NADPH and test compound to the microsomes diluted in phosphate buffered saline. The mixtures were incubated at 37° C. for 0, 20, 40, and 60 min.
(§2) Compound concentrations were assessed by LC-MS/MS. Intrinsic clearance based upon microsomal stability data was determined using a substrate depletion method and scaled to hepatic clearance using the well-stirred model (Obach, R. S.; Baxter, J. G.; Liston, T. E.; Silber, B. M.; Jones, B. C.; MacIntyre, F.; Rance, D. J.; Wastall, P., “The Prediction of Human Pharmacokinetic Parameters from Preclinical and in vitro Metabolism Data”, J. Pharmacol. Exp. Ther., (1997), 283 (1), 46-58).
(Liver microsomes are vesicles of endoplasmic reticulum, rich in cytochrome P450 enzymes.)

A short description of series [2]: Liver microsomes metabolic stability, mouse. The format is in vitro ADME. How it is done:
as §1, §2

The nature of series [3]: In vitro plasma protein binding, human. The format is in vitro ADME. The conditions noted are these: pooled human plasma, read-out: PPB % (H/R/M) (converted). On the procedure: In vitro plasma protein binding (n=2) was determined in pooled mouse, rat, and human plasma (Bioreclamation, Inc., Hicksville, NY) by equilibrium dialysis using a Rapid Equilibrium Dialysis (RED) device (Pierce Biotechnology/Thermo Fisher Scientific; Rockford, IL) with a molecular weight cut-off of 8000 Daltons. Test compounds were added to plasma. Plasma samples were equilibriated with phosphate-buffered saline at 37° C. for 4 hours. Compound concentrations in post-dialysis plasma and buffer samples were measured by LC-MS/MS. The percent unbound fraction in plasma for each compound was calculated by dividing the compound concentration in the post-dialysis buffer by that measured in the post-dialysis plasma and multiplying by 100%.

The test system of a further series is PBMCs. As to the kind of experiment: PBMC IL-2 assay. It is filed as cell-based. The conditions noted are these: read-out: PBMC IL-2 Cell EC50. On the procedure: Immune response to compounds described herein can be assessed via a PBMC IL-2 assay, conducted according to the following protocol. PBMCs (#A19K379053, A19K261022; TPCS) are thawed into complete medium: 1640 medium (#2085568; Gibco), 10% FBS (#SH30084.03; HyClone), and 1× pen/strep. Compounds are 3-fold serially diluted in DMSO in a 384-well polypropylene plate (#P-05525-BC; Labcyte) using the Tecan EVO to generate a source plate with 10 concentrations of each compound, top concentration=4 mM. Compounds are dispensed into a 96-well plate (#6005680; PerkinElmer) using a Labcyte Echo; final dispensed volume of each control and compound is 1000 nL (final DMSO=0.5%). After recovery overnight, cells are seeded at 2×10^5 cells/well into 96-well plates containing compounds and incubated at 37° C., 5% CO2 for 30 min. Cells are stimulated by adding 20 μL/well 1/10 TransAct (#130-111-160; Miltenyi) diluted in complete medium, placed on a shaker for 2 min at 600 rpm, and incubated for 24 h at 37° C., 5% CO2. Plates are centrifuged at 1200 rpm for 5 min and 120 μL cell supernatant collected. Supernatants are diluted 10-fold and IL-2 concentrations of each sample are determined using the IL-2 MSD kit (#K151AHB-4; MSD) per the manufacturer's instructions.

The nature of a further series: Kinetic solubility. It is filed as physicochemical. The conditions noted are these: kinetic from dmso stock.
A short description of series [4]: Liver microsomes metabolic stability, cynomolgus monkey. It is filed as in vitro ADME. How it is done: as §1, §2
Series [5] is described as follows: Liver microsomes metabolic stability, rat. The format is in vitro ADME. On the procedure: as §1, §2

As usually defined, the pEC50 is −log10 of the EC50, conventionally taken in molar units.

Chain of CYP3A4 (P08684 whole entry): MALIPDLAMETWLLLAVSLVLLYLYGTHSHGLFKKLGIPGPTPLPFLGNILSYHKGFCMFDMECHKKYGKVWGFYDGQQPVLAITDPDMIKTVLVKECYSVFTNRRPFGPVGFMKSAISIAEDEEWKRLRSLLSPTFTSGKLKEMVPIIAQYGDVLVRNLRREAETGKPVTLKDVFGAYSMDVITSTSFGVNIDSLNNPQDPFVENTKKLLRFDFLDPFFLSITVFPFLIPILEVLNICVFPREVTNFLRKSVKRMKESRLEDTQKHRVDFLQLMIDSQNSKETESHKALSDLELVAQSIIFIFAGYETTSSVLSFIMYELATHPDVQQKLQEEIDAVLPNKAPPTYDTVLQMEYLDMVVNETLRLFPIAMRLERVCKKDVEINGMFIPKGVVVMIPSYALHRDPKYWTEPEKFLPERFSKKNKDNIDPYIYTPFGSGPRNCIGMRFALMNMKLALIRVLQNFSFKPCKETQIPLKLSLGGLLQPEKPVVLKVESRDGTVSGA
Chain of c-Cbl (P22681 47-435): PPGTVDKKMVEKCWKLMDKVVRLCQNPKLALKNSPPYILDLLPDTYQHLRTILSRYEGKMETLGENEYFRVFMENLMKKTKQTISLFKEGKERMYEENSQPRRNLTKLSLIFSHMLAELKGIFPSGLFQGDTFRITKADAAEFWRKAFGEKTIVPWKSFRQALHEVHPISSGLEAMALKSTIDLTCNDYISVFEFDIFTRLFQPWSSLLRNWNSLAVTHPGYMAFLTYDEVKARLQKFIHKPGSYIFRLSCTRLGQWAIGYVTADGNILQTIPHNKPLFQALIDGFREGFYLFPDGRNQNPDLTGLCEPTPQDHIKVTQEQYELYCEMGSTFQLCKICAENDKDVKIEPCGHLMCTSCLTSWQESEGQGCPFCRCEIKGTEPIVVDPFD

As for `CC(C)[C@H]1CN(C)CCN1Cc1cc(C(=O)Nc2cccc(C3(Cc4nncn4C)CC(F)(F)C3)c2)nc(C2CC2)c1` [Compound 224, (S)-6-cyclopropyl-N-(3-(3,3-difluoro-1-((4-methyl-4H-1,2,4-triazol-3-yl)methyl)cyclobutyl)phenyl)-4-((2-isopropyl-4-methylpiperazin-1-yl)methyl)picolinamide], the pIC50 on CYP3A4 (M, read-out: CYP3A4 IC50 (M/T)) is 6.19; at CYP3A4 (T) it was 5.17; on c-Cbl, 8.30. Also, the “LM (H/R/M/D/C)” value in [1] is recorded as 29; in series [2] it was 60; in series [4], 40; in series [5] it was 38. For the same compound, the fraction unbound at 4 h in series [3] was 0.14. In addition, the pEC50 in the series on PBMCs is 7.49. Besides, the solubility was determined as 8.5 µM (≈ 4.91 µg/mL) in “Kinetic solubility” (value in parentheses, not explained, read-out: Kinet. Solub. (uM), second value in parentheses) and 8.3 µM (≈ 4.8 µg/mL) in “Kinetic solubility” (read-out: Kinet. Solub.).
